2 molecules from patent US5110816A, “3-[2-(4-arylpiperazin-1-yl)ethoxy]-p-cymene, the method of preparing and composition thereof” (Institut de Recherches Chimiques et Biologiques Appliquees …, priority 1988, dated 1992) can be followed below.

Counter-ions that a name gives are not always drawn. A value given as a limit tells only on which side of the number the result lay.

Data set [1] can be described thus: Acute toxicity in mice, single oral dose. The conditions noted are these: mouse, in vivo, p.o., 14-day observation. The procedure: The products were administered orally to mice in a single dose. After a 14-day observation period, the mortality was recorded.
The results are expressed in the form of the 50% lethal dose (LD50) in mg.kg^-1.

Data set [2] relates to toxicity of norepinephrine. Kind of data set: Adrenolytic activity in vivo in rats (protection against norepinephrine lethality). The conditions noted are these: for ED50: Rattus norvegicus, oral 30 minutes before i.v. norepinephrine 0.4 mg.kg^-1, dose protecting 50 percent of animals. As for the experimental part: 4. Determination of the Adrenolytic Activity "In Vivo" in Rats
The intravenous injection of norepinephrine (0.4 mg.kg^-1) in wake rats causes the death of 100 percent of the animals. The prior administration of a substance with an alpha-blocking property makes it possible to reduce this toxicity.
The products claimed were administered orally 30 minutes before the intravenous injection of norepinephrine.
These are expressed in the form of the 50% effective dose (ED50), i.e. the dose, in mg.kg^-1, which protects 50 percent of the animals.

Data set [3] is described as follows: Solubility remark in the isolated rat vas deferens test (Table II). It is filed as physicochemical. The conditions noted are these: under pA2 in Table II, value N.D.
Data set [4] has as its system postsynaptic alpha-adrenergic receptors. The data set is described as follows: Alpha-blocking activity on isolated rabbit ureter. It is filed as cell-based. The conditions noted are these: norepinephrine contraction halved, printed in Table II with asterisk. The text has this:
3. Determination of the Alpha-Blocking Activity on Isolated Rabbit Ureter
Stimulation of the postsynaptic alpha-adrenergic receptors by norepinephrine causes contraction of the isolated rabbit ureter.
The aim is to find the product concentration in whose presence the contracting effect of a given norepinephrine concentration is halved by comparison with the contraction induced before the addition of said product.
The logarithm of this concentration, with its sign changed, represents the pD'2 value.

The next data set has as its system arterial pressure. Kind of data set: Norepinephrine-induced arterial hyperpressure in anesthetized rabbits. The class given is in vivo. Conditions: Oryctolagus cuniculus, iv, norepinephrine i.v., 50% inhibition of increase in arterial pressure, read-out: Arterial pressure ID50. The procedure: (§1) 5. Activity on Ureteral Hyperpressure in Rabbits
(§2) An increase in the arterial pressure and the ureteral pressure is induced in anesthetized rabbits by an intravenous injection of norepinephrine. These hyperpressures can be inhibited by the prior administration of molecules with alpha-blocking potential.
The efficacy is assessed by the 50% inhibitory dose (ID50), i.e. the dose which inhibits the increases in arterial and ureteral pressures by 50 percent.

The subject of a further data set is ureteral pressure. The data set is described as follows: Norepinephrine-induced ureteral hyperpressure in anesthetized rabbits. It is filed as in vivo.
Excerpt: as §1, §2

The molecule `Cc1ccc(C(C)C)c(OCCN2CCN(c3ccc(Cl)c(Cl)c3)CC2)c1` [B.1184, 3-[2-4-(3,4-dichloro)phenylpiperazin-1-yl)ethoxy]-p-cymene hydrochloride] yielded an LD50 at 336 h in data set [1] of more than 1000 mg/kg. For the same molecule, the ED50 in data set [2] is more than 100 mg/kg. In addition, in data set [3], the solubility remark result was “insoluble”.
The molecule `Cc1ccc(C(C)C)c(OCCN2CCN(c3ccccc3OC(C)C)CC2)c1` [B.1399] came in with an LD50 at 336 h in data set [1] of approximately 500 mg/kg. The “pD'2” value in data set [4] is reported as 6.69. In addition, the ED50 with arterial pressure came out at 1.64 mg/kg; in data set [2] it was 0.78 mg/kg; in the data set with ureteral pressure (Oryctolagus cuniculus, iv, norepinephrine i.v., 50% inhibition of increase in ureteral pressure, read-out: Ureteral pressure ID50), 0.18 mg/kg. Besides, the “protection against the toxicity of norepinephrine (in words)” value in data set [2] (oral) is reported as “excellent protection against the toxicity of norepinephrine”. In addition, in the data set with ureteral pressure (I.V.), the “ratio of ID50 arterial pressure to ID50 ureteral pressure” value was determined as 9.1.
